In the OligoGym collection:
After the bases stand the sugars from the 5' end (letter, count) and the backbone: PS all phosphorothioate, else s phosphorothioate and o phosphodiester by linkage. Methylation of C is not given here. e = 2'-O-(2-methoxyethyl) (MOE); k = constrained ethyl (cEt); d = 2'-deoxy (DNA); m = 2'-O-methyl

Target: HSD17B13
Settings: ASO, HepaRG

## AGAATTAAGGGCTATA (sugars k3 d10 k3, PS)
1 µM
  target mRNA inhibition: 45%

## TCACCTTTCATAATGT (sugars k3 d1 m1 d8 k3, PS)
1 µM
  target mRNA inhibition: 47%

## GTGGCATGGCTACAGA (sugars k3 d1 m1 d8 k3, PS)
1 µM
  target mRNA inhibition: 49%

## ACCTTGAATGAGTGGT (sugars k3 d10 k3, PS)
1 µM
  target mRNA inhibition: 26%

## GATTGGAATGCTACTT (sugars k3 d1 m1 d8 k3, PS)
1 µM
  target mRNA inhibition: 48%

## GTCTAAACATCTCTGG (sugars k3 d10 k3, PS)
1 µM
  target mRNA inhibition: 58%

## TAAGCAGAATTGTGAA (sugars k3 d1 m1 d8 k3, PS)
1 µM
  target mRNA inhibition: 26%

## TTCTCTTGACAATGGT (sugars k3 d10 k3, PS)
1 µM
  target mRNA inhibition: 67%

## GCTGCTAGTGCCAAAC (sugars k3 d10 k3, PS)
1 µM
  target mRNA inhibition: 67%

## ATACGATGGAACAAAA (sugars k3 d10 k3, PS)
1 µM
  target mRNA inhibition: 27%

## GTCCTTTGTATTTCGC (sugars k3 d10 k3, PS)
1 µM
  target mRNA inhibition: 45%

## ATCCAGATCTGCCCTA (sugars k3 d10 k3, PS)
1 µM
  target mRNA inhibition: 39%

## CTGCTAGTGCCAAACC (sugars kkdddddddddkekek, PS)
1 µM
  target mRNA inhibition: 51%

## GGCTTAATGTTCAGTT (sugars k3 d10 k3, PS)
1 µM
  target mRNA inhibition: 54%

## ACATCTCTGGGACCAA (sugars k3 d10 k3, PS)
1 µM
  target mRNA inhibition: 78%

## GATATTGATATACGAT (sugars k3 d10 k3, PS)
1 µM
  target mRNA inhibition: 2%

## ACTGCTGCTAGTGCCA (sugars kkdddddddddkekek, PS)
1 µM
  target mRNA inhibition: 39%

## ATCCTGTAAACACTTC (sugars k3 d10 k3, PS)
0.02 µM
  target mRNA inhibition: 11%
0.078 µM
  target mRNA inhibition: 13%
0.313 µM
  target mRNA inhibition: 27%
1 µM
  target mRNA inhibition: 79%
1.25 µM
  target mRNA inhibition: 66%
5 µM
  target mRNA inhibition: 87%

## TCCCACAAAACTAACC (sugars k3 d10 k3, PS)
1 µM
  target mRNA inhibition: 24%

## AAATAGAGTCGGTCAC (sugars k3 d9 k3 e1, PS)
1 µM
  target mRNA inhibition: 48%

## GATATGAGTAAAGATC (sugars k3 d10 k3, PS)
1 µM
  target mRNA inhibition: 23%

## CTGCCAGGGAATGCTC (sugars k3 d10 k3, PS)
1 µM
  target mRNA inhibition: 23%

## AAATTATACTTTTCCG (sugars k3 d10 k3, PS)
0.02 µM
  target mRNA inhibition: 0%
0.078 µM
  target mRNA inhibition: 38%
0.313 µM
  target mRNA inhibition: 66%
1 µM
  target mRNA inhibition: 85%
1.25 µM
  target mRNA inhibition: 88%
5 µM
  target mRNA inhibition: 92%

## CCTTGAATAGCAAGCC (sugars k3 d10 k3, PS)
1 µM
  target mRNA inhibition: 61%

## GTGTAAATAAGTTCTC (sugars k3 d10 k3, PS)
1 µM
  target mRNA inhibition: 61%

## GTTCTTGTTGATATTC (sugars kkdddddddddkekek, PS)
1 µM
  target mRNA inhibition: 66%

## GATCCATATTCCCTGA (sugars k3 d10 k3, PS)
0.02 µM
  target mRNA inhibition: 0%
0.078 µM
  target mRNA inhibition: 0%
0.313 µM
  target mRNA inhibition: 21%
1 µM
  target mRNA inhibition: 74%
1.25 µM
  target mRNA inhibition: 40%
5 µM
  target mRNA inhibition: 60%

## AGTCCTTGTGTAGTCC (sugars k3 d10 k3, PS)
1 µM
  target mRNA inhibition: 64%

## AATCCCAACCAAACTT (sugars k3 d9 k3 e1, PS)
1 µM
  target mRNA inhibition: 13%

## TTTATAGACTGGGTAG (sugars k3 d10 k3, PS)
1 µM
  target mRNA inhibition: 59%

## GTCACCTTTCATAATG (sugars k3 d9 k3 e1, PS)
1 µM
  target mRNA inhibition: 21%

## TATGAAGTTAGTATAG (sugars kkdddddddddkekek, PS)
1 µM
  target mRNA inhibition: 47%

## GATTATTATGTGATTG (sugars k3 d10 k3, PS)
1 µM
  target mRNA inhibition: 39%

## CAGATTGGAATGCTAC (sugars kkdddddddddkekek, PS)
1 µM
  target mRNA inhibition: 57%

## CATAAAAATCGCTGCT (sugars k3 d10 k3, PS)
1 µM
  target mRNA inhibition: 45%

## AGTGAATCATTCAGTA (sugars k3 d10 k3, PS)
0.02 µM
  target mRNA inhibition: 49%
0.078 µM
  target mRNA inhibition: 54%
0.313 µM
  target mRNA inhibition: 80%
1 µM
  target mRNA inhibition: 86%
1.25 µM
  target mRNA inhibition: 93%
5 µM
  target mRNA inhibition: 94%

## TTTCGAATCATTAAGC (sugars k3 d10 k3, PS)
1 µM
  target mRNA inhibition: 30%

## AAGCAGAATTGTGAAC (sugars k3 d10 k3, PS)
1 µM
  target mRNA inhibition: 18%

## AAAAATCGCTGCTTAG (sugars k3 d10 k3, PS)
1 µM
  target mRNA inhibition: 25%

## AAGACATTCTAGCCTG (sugars kkdddddddddkekek, PS)
1 µM
  target mRNA inhibition: 25%

## CTTATGATAATTTGGT (sugars k3 d10 k3, PS)
1 µM
  target mRNA inhibition: 2%

## ATCCUATATACATCCA (sugars k3 d1 m1 d8 k3, PS)
1 µM
  target mRNA inhibition: 64%

## GTTTAGCAATTTAGCA (sugars k3 d10 k3, PS)
1 µM
  target mRNA inhibition: 50%

## CGCATGCGCAGTGACG (sugars k3 d10 k3, PS)
1 µM
  target mRNA inhibition: 46%

## CTGAGAAGATCGGCTG (sugars k3 d10 k3, PS)
1 µM
  target mRNA inhibition: 37%

## CTTTUTATAGACTGGG (sugars k3 d1 m1 d8 k3, PS)
1 µM
  target mRNA inhibition: 34%

## TTGGTATGGTAAGCCC (sugars k3 d10 k3, PS)
1 µM
  target mRNA inhibition: 62%
